The text below walks through data of PubChem BioAssay (NCI).

“And” between values parts separate entries of the source, which are not always exact repeats. Equal values may be shown once.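 Interpolation was linear, between the two tested concentrations surrounding the appropriate level; five concentrations were tested over 48 hours in 96-well plates. At the GI50, growth is halved. At the TGI there is no net growth.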

This test concerns MDA-MB-468 breast. In words: DTP human tumour cell line panel, 48 h.
What is called GI50 is the concentration that inhibits growth by half. By TGI is commonly meant the concentration at which net growth stops. A higher TGI goes with lower sensitivity of the cells. On to `Cn1c(N2NC(=O)C(N=Nc3ccc(S(N)(=O)=O)cc3)C2=O)nc(-c2ccco2)c(C#N)c1=O` (centres undefined), for which the GI50 was 1.61 µM and the TGI came out at 6.73 µM.
Turning to `CCCCC/C(C=C(C#N)C#N)=C/c1ccccc1`, the GI50 is 10.2 µM and the TGI turned out to be 27.2 µM.
The corresponding values for `O=[N+]([O-])/C=C\c1ccc(Cl)c(Cl)c1` are 1.79 µM and 3.76 µM.
Consider `CN(C)CCNc1cc(-c2ccccc2)nc2ccccc12`, for which the GI50 is 3.85 µM and the TGI amounted to 16.8 µM.
The like results for `COc1cc(/C=N/n2cnc3oc(-c4ccccc4)cc3c2=N)cc(CN2CCCC2)c1O` were, in that order, 2.01 µM and 5.08 µM.
The corresponding values for `O=C(Nc1ccc(N2CCNCC2)cc1)c1[nH]ncc1Nc1cc(Oc2ccccc2)ncn1` are 1.99 µM and 4.83 µM.
The like results for `O=c1oc2ccc(F)cc2c(=O)n1-c1ccc(F)cc1F` were, in that order, 2.76 µM and 7.78 µM.
As to `O=C1c2c(c3c4ccccc4n(CCCCCCBr)c3c3[nH]c4ccccc4c23)C(=O)N1O`, the GI50 was 2.82 µM and the TGI was found to be 8.18 µM.
The like results for `Cc1ccc(S(=O)(=O)N(CCOc2ccc(/C(N)=N/Cl)cc2)CCOc2ccc(/C(N)=N\Cl)cc2)cc1` were, in that order, 3.98 µM and 21.4 µM.
The corresponding values for `Cn1cc(-c2cnc3ccc(NC(=O)Nc4ccc(F)c(Br)c4)cc3n2)cn1` are 1.41 µM and 3.86 µM.
The like results for `CCCCC(=O)OCC1OC(n2cnc3c(=S)nc[nH]c32)C(OC(=O)CCCC)C1OC(=O)CCCC` (centres undefined) were, in that order, 0.215 µM and 1.52 µM.
With `CNC(=O)OCc1c(COC(=O)NC)c(-c2ccc(Cl)c(Cl)c2)n2c1SCC2`, the GI50 was 0.264 µM and the TGI is 1.27 µM.
The corresponding values for `Nc1ccn(C2O[C@H](CO)[C@@H](O)[C@@H]2O)c(=O)n1` (some centres undefined) are above 100 µM and above 100 µM.
Regarding `NCC(=O)NS(=O)(=O)OC[C@H]1O[C@@H](n2cnc3c(N)ncnc32)[C@H](O)[C@@H]1O`, the GI50 is 0.742 µM and the TGI came to 2.56 µM.
The like results for `O=C(CN1CCOCC1)Nc1ccc(Cn2nnc3c2C(=O)c2nnn(Cc4ccc(NC(=O)CN5CCOCC5)cc4)c2C3=O)cc1` were, in that order, 0.208 µM and 0.55 µM.
On to `Cc1ccc(CS/C(=C\c2ccc([N+](=O)[O-])cc2)C(=O)c2ccc(F)cc2)cc1`, for which the GI50 is 3.41 µM and the TGI came out at 16.4 µM.
The like results for `Cc1ccc2c(c1)C(=O)/C(=C/c1ncc([N+](=O)[O-])n1C)O2` were, in that order, 1.85 µM and 4.34 µM.
`C[C@]12CC[C@H](O)CC1=CC[C@@H]1[C@@H]2CC[C@]2(C)C(c3cccnc3)=CC[C@@H]12`: the GI50 was 26.9 µM and the TGI is above 100 µM.
The corresponding values for `O=C1c2cccc(NCCN=Cc3cc(O)ccc3O)c2C(=O)c2c(NCCN=Cc3cc(O)ccc3O)cccc21` are 0.584 µM and 2.37 µM.
`COc1cccc(-c2cc(=O)c3cc(N(C)C)ccc3[nH]2)c1`: the TGI was > 100 µM and 59.2 µM.
For `N#CSCC1CC(O)(c2ccccc2)C(c2ccccc2)C(c2ccc(Cl)cc2)O1` (centres undefined), the GI50 is 1.44 µM and the TGI was determined as 2.85 µM.
The like results for `COC(=O)CCCCN=Cc1c(O)c(O)c(C(C)C)c2cc(C)c(-c3c(C)cc4c(C(C)C)c(O)c(O)c(C=NCCCCC(=O)OC)c4c3O)c(O)c12` were, in that order, 0.78 µM and 3.06 µM.
The like results for `CC[CH2][Pb]([CH2]CC)([CH2]CC)[O]C(=O)C(F)(F)F` were, in that order, 0.0551 µM and 0.153 µM.
Regarding `COc1cc(O)c2c(c1)/C=C/C[C@H](O)[C@H](O)C(=O)/C=C\C[C@H](C)OC2=O`, the GI50 was 3.85 µM and 5.6 µM; the TGI is 13.3 µM and 20.7 µM.
As for `O=C(CI)NC1Oc2ccccc2-c2oc(=O)c(-c3ccccc3)cc21` (centres undefined), the GI50 is 1.79 µM and the TGI is 4.32 µM.
The like results for `COc1ccc2[nH]c(O)c(/C=c3/cc4c(c(-c5cc(OC)c(OC)c(OC)c5)n3)=Nc3ccccc3-4)c2c1` were, in that order, 2.62 µM and 11.7 µM.
On to `CC1=C(C(=O)Nc2ccc3[nH]ncc3c2)C(c2ccc3ccccc3c2)CC(=O)N1` (centres undefined), for which the GI50 is 13.9 µM and the TGI is above 25 µM.
As to `COc1ccc(/C(=C2\O[C@@H]([C@H]3COC(C)(C)O3)[C@H]3OC(C)(C)O[C@@H]23)c2cc(OC)c(OC)c(OC)c2)cc1O`, the GI50 was 14.5 µM and the TGI was 34.1 µM.
Turning to `CN1CCN(Cc2ccc(NC(=O)c3cncc(C#Cc4cnc(N)c5ccc(C#N)cc45)c3)cc2C(F)(F)F)CC1`, the 50% growth inhibitory concentration (GI50) is 0.0608 µM and the TGI came out at 0.627 µM.
The corresponding values for `O=C(NCCOCCOCCNc1cccc2c1C(=O)N(C1CCCNC1=O)C2=O)c1cc2c(o1)C(=O)c1ccccc1C2=O` (centres undefined) are 1.61 µM and 4.43 µM.
The like results for `CCOc1cccc(/C=N/NC(=O)c2ccccc2Nc2ccnc(C(F)(F)F)c2)c1O` were, in that order, 0.271 µM and 9.28 µM.
The corresponding values for `N#C/C(=C1C=C/C(=N/O)C(Br)=C/1)c1ccccc1` are 1.53 µM and 15 µM.
On to `COc1cccc(/C=N/NC(=O)c2ccccc2Nc2ccnc(C(F)(F)F)c2)c1O`, for which the concentration for 50% growth inhibition (GI50) is 0.218 µM and the TGI worked out at 9.62 µM.
For the molecule `Oc1ccc(CSc2nnc(-c3cnccn3)n2-c2ccccc2)c2cccnc12`, the GI50 was 0.97 µM and the TGI is above 20 µM.
For the molecule `CCNCCNc1cc(-c2ccc(C(=O)OC)cc2)c(C#N)c2nc3ccccc3n12`, the GI50 is 1.37 µM and the TGI is 2.86 µM.
The corresponding values for `Cc1c(F)c(N)c2c(=O)cc(-c3ccc(NC(=O)CN(C)C)c(F)c3)oc2c1F` are 0.0577 µM and 0.394 µM.
The corresponding values for `CCCCCc1ccc(S(=O)(=O)Nc2cccc(-c3csc(NC(=O)CCCCCN4CCN(C)CC4)n3)c2)cc1` are 1.79 µM and 3.46 µM.
With `COc1cc(/C=C/c2cc(/C=C/c3ccc(O)c(OC)c3)n(-c3ccccc3)n2)ccc1O`, the GI50 is 0.271 µM and the TGI came to 0.908 µM.
As for `O=C1/C(=C/c2ccc(Br)cc2)C=C(c2ccccc2)N1CCc1ccccc1`, the GI50 is 1.27 µM and the TGI was 7.8 µM.
In the case of `CN(C)CCNC(=O)c1ccc(-c2nc3ccc4[nH]ncc4c3c3c2CCC3)cc1`, the GI50 is 0.448 µM and the TGI amounted to 1.49 µM.
In the case of `COc1cc(OC)cc(-c2ccc(-c3ccc(C(=N)N)o3)o2)c1`, the GI50 was 2.4 µM and the TGI was 4.73 µM.
The corresponding values for `O=C(O)CCCCC(CCSCc1ccccc1)SCc1ccccc1` (centres undefined) are 45.1 µM and above 91.4 µM.
The corresponding values for `COc1ccc(C2=NN(C(=O)c3cc(OC)c(OC)c(OC)c3)C(c3ccc(C#N)cc3)C2)cc1OC` (centres undefined) are 0.419 µM and 2.89 µM.
The like results for `COc1ccc2c(c1)c(-c1nc(-c3cn(C)c4ncccc34)cs1)cn2CCCN1CCCCC1` were, in that order, 1.8 µM and 3.55 µM.
Regarding `CC1=C(CCCNS(C)(=O)=O)C2=C(C)C3(CC3)[C@@](C)(O)C(=O)C2=C1`, the GI50 is 0.354 µM and the TGI was found to be 1.66 µM.
